Laboratory results published in patent US12409129B2, “Skin care composition” (BEIERSDORF AG, priority 2019, dated 2025).

Experiments:
C. acnes strain C3 = test: Minimum inhibitory concentration (MIC) / compatibility of cosmetic excipients; assay type: cell-based, Cutibacterium acnes; details: % w/vol, incubated anaerobically 3 days at 37° C, growth scored visually
Description: (§1) In microbiology, the MIC is the lowest concentration of a chemical which prevents visible growth of bacterium. The resulted MIC value depends both on the microorganism and the test compound. The MIC is determined by preparing concentrations series of the test compound in vitro, incubating the solutions with the separate batches of cultured bacteria, and measuring the results using agar dilution or broth microdilution. For the experiments with C. acnes strains C3 and K8, media comprising yeast extract soy peptone and dextrose were used. The MIC is determined by turbidity.
(§2) A total of 125 cosmetic excipients were tested for their compatibility with C. acnes strains C3 and K8. Hydrophilic compounds were tested in a 96-well plate liquid broth format, poorly soluble compounds were pre-dissolved in DMSO before dilution in liquid broth and hydrophobic or solid compounds were tested in an agar well diffusion test assay. The different dilutions of the test excipients in media were prepared in Falcon tubes and then distributed in a deep well plate using a multistepper. Each well received 1.2 ml and was subsequently inoculated with 120 μl of C. acnes bacteria suspension (strain C3 and K8). From the deep well plate 200 μl were transferred in each well of a clear 96 well replicate plate. The leftover was discarded. The plates were then incubated anaerobically for 3 days at 37° C. Following incubation, the test plates were visually examined and wells were scored for growth or complete growth inhibition to define the minimum inhibitory concentration.
(§3) These excipients are listed in the below table with their compatibility values for C. acnes strains C3 and K8. The compatibility values represent the MIC value of the listed ingredients with the tested C. acnes strains. At this concentration [% w/vol] the tested compound starts interfering with the growth of the tested strains. The compounds can be used in formulations at concentrations below this concentration.

C. acnes strain K8 = test: as above; assay type: cell-based, Cutibacterium acnes; details: % w/vol, incubated anaerobically 3 days at 37° C, growth scored visually
Description: as §1, §2, §3

Molecule: CCO [ethanol]
- COMPATABILITY VALUE C3 [%] (MIC value) (C. acnes strain C3): 3.75%
- COMPATABILITY VALUE K8 [%] (MIC value) (C. acnes strain K8): 3.75%

Molecule: O=C(O)CC(O)(CC(=O)O)C(=O)O [citric acid]
- COMPATABILITY VALUE C3 [%] (MIC value) (C. acnes strain C3): 0.33%
- COMPATABILITY VALUE K8 [%] (MIC value) (C. acnes strain K8): 0.08%

Molecule: tocopherol
- COMPATABILITY VALUE C3 [%] (MIC value) (C. acnes strain C3): 1.50%
- COMPATABILITY VALUE K8 [%] (MIC value) (C. acnes strain K8): 1.50%

Molecule: ethylhexyl cocoate
- COMPATABILITY VALUE C3 [%] (MIC value) (C. acnes strain C3): 10.00%
- COMPATABILITY VALUE K8 [%] (MIC value) (C. acnes strain K8): 10.00%

Molecule: CCCCCCC(O)CO (centres unmarked) [caprylyl glycol]
- COMPATABILITY VALUE C3 [%] (MIC value) (C. acnes strain C3): 0.18%
- COMPATABILITY VALUE K8 [%] (MIC value) (C. acnes strain K8): 0.18%

Molecule: CC(=O)Oc1c(C)c(C)c2c(c1C)CCC(C)(CCC[C@H](C)CCC[C@H](C)CCCC(C)C)O2 (some centres unmarked) [tocopheryl acetate]
- COMPATABILITY VALUE C3 [%] (MIC value) (C. acnes strain C3): 1.00%
- COMPATABILITY VALUE K8 [%] (MIC value) (C. acnes strain K8): 1.00%

Molecule: CC(CO)CO [methylpropanediol]
- COMPATABILITY VALUE C3 [%] (MIC value) (C. acnes strain C3): 4.00%
- COMPATABILITY VALUE K8 [%] (MIC value) (C. acnes strain K8): 4.00%
